Like-named read-outs stand apart in the source and are kept apart here.
Experiments:
Format in all cases: in vivo
[1] = test system: Cabbage Looper (Trichoplusia ni, TRIPNI); test: Bioassay on Cabbage Looper (CL), 128-well diet tray assay; conditions: Trichoplusia ni
Procedure, shortened: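 Diet-incorporation-free surface assay: 50 μg/cm^2 compound in acetone-water (90:10), dried on diet; 1–5 2nd-instar larvae/well; 8 wells; vented cover; 25° C., 14:10 L:D, 5–7 d; % mortality averaged over wells.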

[2] = test system: Beet Armyworm (Spodoptera exigua, LAPHEG); test: Bioassay on Beet Armyworm (BAW), 128-well diet tray assay
Procedure, shortened: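 Diet tray, 8 wells/compound; 50 μg/cm^2 applied to diet surface (90:10 acetone-water), dried. 1–5 L2 larvae/well; 25° C., 14:10 L:D, 5–7 d. Read-out: % mortality, mean of 8 wells.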

[3] = test system: Green Peach Aphid (Myzus persicae, MYZUPE); test: Bioassay on Green Peach Aphid (GPA), foliar spray on infested cabbage seedlings; conditions: 72 h
Method: Certain molecules disclosed in this document were tested against GPA using procedures described in the following example. In the reporting of the results, the “GPA & YFM Rating Table” was used (See Table Section).
Cabbage seedlings grown in 3-inch pots, with 2-3 small (3-5 cm) true leaves, were used as test substrate. The seedlings were infested with 20-50 GPA (wingless adult and nymph stages) one day prior to chemical application. Four pots with individual seedlings were used for each treatment. Test molecules (2 mg) were dissolved in 2 mL of acetone/methanol (1:1) solvent, forming stock solutions of 1000 ppm test molecule. The stock solutions were diluted 5× with 0.025% Tween 20 in water to obtain the solution at 200 ppm test molecule. A hand-held aspirator-type sprayer was used for spraying a solution to both sides of […] leaves until runoff. Reference plants (solvent check) were sprayed with the diluent only containing 20% by volume of acetone/methanol (1:1) solvent. Treated plants were held in a holding room for three days at approximately 25° C. and ambient relative humidity (RH) prior to grading. Evaluation was conducted by counting the number of live aphids per plant under a microscope. Percent control was measured using Abbott's correction formula (W. S. Abbott, “A Method of Computing the Effectiveness of an Insecticide” 3. Econ. Entomol. 18 (1925), pp. 265-267) as follows. Corrected % Control=100*(X−Y)/X where X=No. of live aphids on solvent check plants and Y=No. of live aphids on treated plants. The results are indicated in the table entitled “Table ABC: Biological Results” (See Table Section).

[4] = Species CL (Cabbage Looper), read-out: CL (Biological Results, rating)
[5] = Species BAW (Beet Armyworm), read-out: BAW (Biological Results, rating)
[6] = foliar, Species GPA (Green Peach Aphid), read-out: GPA (Biological Results, rating)

SMILES	pest or weed control at 50 µg/cm2 [1, 4] [%]	pest or weed control at 50 µg/cm2 [2, 5] [%]	pest or weed control at 200 µg/mL [3, 6] [%]	pest or weed control at 50 µg/cm2 ([1]; Cabbage Looper, 128-well diet tray assay, read-out: CL rating) [%]	pest or weed control at 50 µg/cm2 ([2]; Beet Armyworm, 128-well diet tray assay, read-out: BAW rating) [%]	pest or weed control at 200 µg/mL ([3]; Green Peach Aphid, foliar spray on cabbage seedlings, read-out: GPA rating) [%]
O=C(Nc1ccc(F)cc1)c1cc(NC(=O)[C@H]2[C@H](c3cc(Cl)cc(Cl)c3)C2(Cl)Cl)ccc1Br (relative stereo) [F11, trans-2-Bromo-5-(2,2-dichloro-3-(3,5-dichlorophenyl)cyclopropane-1-carboxamido)-N-(4-fluorophenyl)benzamide]	50 to 100	50 to 100	0 to 80	–	–	–
O=C(Nc1ccc(F)cc1)c1cc(NC(=O)[C@H]2[C@H](c3cc(Cl)cc(Cl)c3)C2(Cl)Cl)ccn1 (relative stereo) [F126, trans-4-(2,2-dichloro-3-(3,5-dichlorophenyl)cyclopropane-1-carboxamido)-N-(4-fluorophenyl)picolinamide]	50 to 100	50 to 100	0 to 80	–	–	–
CC(=O)Nc1ccc(NC(=O)c2cc(NC(=O)[C@H]3[C@H](c4cc(Cl)cc(Cl)c4)C3(Cl)Cl)ccc2Cl)cc1 (relative stereo) [F153, trans-N-(4-Acetamidophenyl)-2-chloro-5-(2,2-dichloro-3-(3,5-dichlorophenyl)cyclopropane-1-carboxamido)benzamide]	50 to 100	50 to 100	0 to 80	–	–	–
O=C(Nc1ccc(F)cc1)c1cc(NC(=O)[C@H]2[C@H](c3cc(Cl)c(F)c(Cl)c3)C2(Cl)Cl)ccc1Cl (relative stereo) [F96, trans-2-Chloro-5-(2,2-dichloro-3-(3,5-dichloro-4-fluorophenyl)cyclopropane-1-carboxamido)-N-(4-fluorophenyl)benzamide]	50 to 100	50 to 100	80 to 100	–	–	–
O=C(Nc1ccc(F)cc1)c1cc(NC(=O)[C@H]2[C@H](c3cc(Cl)cc(Cl)c3)C2(Cl)Cl)c(F)cc1F (relative stereo) [F49, trans-5-(2,2-Dichloro-3-(3,5-dichlorophenyl)cyclopropane-1-carboxamido)-2,4-difluoro-N-(4-fluorophenyl)benzamide]	50 to 100	50 to 100	0 to 80	–	–	–
Cc1cc([C@H]2[C@H](C(=O)Nc3ccc(Cl)c(C(=O)N(C)c4ccc(F)cc4)c3)C2(Cl)Cl)cc(Cl)c1Cl (relative stereo) [F124, trans-2-Chloro-5-(2,2-dichloro-3-(3,4-dichloro-5-methylphenyl)cyclopropane-1-carboxamido)-N-(4-fluorophenyl)-N-methylbenzamide]	50 to 100	50 to 100	0 to 80	–	–	–
O=C(Nc1ccc(F)cc1)c1cccc(NC(=O)[C@H]2[C@H](c3cc(Cl)cc(Cl)c3)C2(Cl)Cl)c1Cl (relative stereo) [F127, trans-2-Chloro-3-(2,2-dichloro-3-(3,5-dichlorophenyl)cyclopropane-1-carboxamido)-N-(4-fluorophenyl)benzamide]	50 to 100	50 to 100	0 to 80	–	–	–
COc1ccc(NC(=O)c2cc(NC(=O)[C@H]3[C@H](c4cc(Cl)cc(Cl)c4)C3(Cl)Cl)ccc2Cl)c(F)c1 (relative stereo) [F150, trans-2-Chloro-5-(2,2-dichloro-3-(3,5-dichlorophenyl)cyclopropane-1-carboxamido)-N-(2-fluoro-4-methoxyphenyl)benzamide]	50 to 100	50 to 100	80 to 100	–	–	–
Cc1cc(Cl)cc([C@H]2[C@H](C(=O)Nc3ccc(Cl)c(C(=O)N(C)c4ccc(F)cc4)c3)C2(Cl)Cl)c1 (relative stereo) [F117, trans-2-Chloro-5-(2,2-dichloro-3-(3-chloro-5-methylphenyl)cyclopropane-1-carboxamido)-N-(4-fluorophenyl)-N-methylbenzamide]	50 to 100	50 to 100	0 to 80	–	–	–
O=C(Nc1ccc(F)cc1)c1cc(NC(=O)C2C(c3cc(Cl)cc(Cl)c3)C2(F)Cl)ccc1Cl (stereo not drawn) [PF153, 2-Chloro-5-(trans)-2-chloro-3-(3,5-dichlorophenyl)-2-fluorocyclopropane-1-carboxamido)-N-(4-fluorophenyl)benzamide]	–	–	–	50 to 100	50 to 100	80 to 100
COc1ccc(NC(=O)[C@H]2[C@H](c3cc(Cl)cc(Cl)c3)C2(Cl)Cl)cc1C(=O)Nc1ccc(F)cc1 (relative stereo) [F128, trans-5-(2,2-Dichloro-3-(3,5-dichlorophenyl)cyclopropane-1-carboxamido)-N-(4-fluorophenyl)-2-methoxybenzamide]	50 to 100	0 to 50	0 to 80	–	–	–
CNC(=O)c1ccc(NC(=O)c2cc(NC(=O)[C@H]3[C@H](c4cc(Cl)cc(Cl)c4)C3(Cl)Cl)ccc2Cl)cc1 (relative stereo) [F152, trans-2-Chloro-5-(2,2-dichloro-3-(3,5-dichlorophenyl)cyclopropane-1-carboxamido)-N-(4-(methylcarbamoyl)phenyl)benzamide]	50 to 100	50 to 100	0 to 80	–	–	–
O=C(Nc1ccc(OC(F)F)cc1)c1cc(NC(=O)[C@H]2[C@H](c3cc(Cl)cc(Cl)c3)C2(Cl)Cl)ccc1Cl (relative stereo) [F148, trans-2-Chloro-5-(2,2-dichloro-3-(3,5-dichlorophenyl)cyclopropane-1-carboxamido)-N-(4-(difluoromethoxy)phenyl)benzamide]	50 to 100	50 to 100	0 to 80	–	–	–
Cc1ccc(NC(=O)c2cc(NC(=O)[C@H]3[C@H](c4cc(Cl)cc(Cl)c4)C3(Cl)Cl)ccc2Cl)c(F)c1 (relative stereo) [F151, trans-2-Chloro-5-(2,2-dichloro-3-(3,5-dichlorophenyl)cyclopropane-1-carboxamido)-N-(2-fluoro-4-methylphenyl)benzamide]	50 to 100	50 to 100	80 to 100	–	–	–
CN(C(=O)c1cc(NC(=O)[C@H]2[C@H](c3cc(Cl)cc(Cl)c3)C2(Cl)Cl)ccc1F)c1ccc(F)cc1 (relative stereo) [F45, trans-5-(2,2-Dichloro-3-(3,5-dichlorophenyl)cyclopropane-1-carboxamido)-2-fluoro-N-(4-fluorophenyl)-N-methylbenzamide]	50 to 100	50 to 100	0 to 80	–	–	–
O=C(Nc1ccc(OC(F)(F)F)cc1)c1cc(NC(=O)[C@H]2[C@H](c3cc(Cl)cc(Cl)c3)C2(Cl)Cl)ccc1Cl (relative stereo) [F147, trans-2-Chloro-5-(2,2-dichloro-3-(3,5-dichlorophenyl)cyclopropane-1-carboxamido)-N-(4-(trifluoromethoxy)phenyl)benzamide]	50 to 100	50 to 100	0 to 80	–	–	–
O=C(Nc1ccc(Cl)cc1)c1cc(NC(=O)[C@H]2[C@H](c3cc(Cl)cc(Cl)c3)C2(Cl)Cl)ccc1Cl (relative stereo) [F7, trans-2-Chloro-N-(4-chlorophenyl)-5-(2,2-dichloro-3-(3,5-dichlorophenyl)cyclopropane-1-carboxamido)benzamide]	50 to 100	50 to 100	0 to 80	–	–	–
O=C(Nc1ccc(F)nc1)c1cc(NC(=O)[C@H]2[C@H](c3cc(Cl)cc(Cl)c3)C2(Cl)Cl)ccc1Cl (relative stereo) [F142, trans-2-chloro-5-(2,2-dichloro-3-(3,5-dichlorophenyl)cyclopropane-1-carboxamido)-N-(6-fluoropyridin-3-yl)benzamide]	50 to 100	50 to 100	80 to 100	–	–	–
O=C(Nc1ccc(F)cc1Cl)c1cc(NC(=O)[C@H]2[C@H](c3cc(Cl)cc(Cl)c3)C2(Cl)Cl)ccc1Cl (relative stereo) [F8, trans-2-Chloro-N-(2-chloro-4-fluorophenyl)-5-(2,2-dichloro-3-(3,5-dichlorophenyl)cyclopropane-1-carboxamido)benzamide]	50 to 100	50 to 100	80 to 100	–	–	–

From patent US10219516B2, “Molecules having pesticidal utility, and intermediates, compositions, and processes, related thereto” (priority 2015, dated 2019)
